Consider 19 compounds from the Kinase Knowledgebase extract (Sharma et al. 2016).

Molecules are shown by their SMILES. Where only a bound is given, the exact number is not on record here.

For the test, the target named is MAPK14 (UniProt Q16539). Briefly: p38-alpha Inhibition. The following applies: for inhibition: concentration not given here.
Chain of MAPK14 (Q16539 whole entry, looked up): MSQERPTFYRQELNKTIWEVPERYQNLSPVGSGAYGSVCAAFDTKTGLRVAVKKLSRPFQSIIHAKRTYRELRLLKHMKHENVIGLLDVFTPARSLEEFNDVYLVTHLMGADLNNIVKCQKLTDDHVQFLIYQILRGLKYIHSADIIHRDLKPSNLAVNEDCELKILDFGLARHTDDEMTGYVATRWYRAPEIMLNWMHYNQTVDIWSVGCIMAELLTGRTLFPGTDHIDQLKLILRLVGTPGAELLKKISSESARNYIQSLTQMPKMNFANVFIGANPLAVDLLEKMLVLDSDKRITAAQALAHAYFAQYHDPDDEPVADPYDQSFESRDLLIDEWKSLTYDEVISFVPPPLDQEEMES

Broadly, the inhibition is the relative decrease from the control value, in per cent. The compound `COc1ccc(CNc2ccc3nc(-c4ccccc4F)nc(Nc4ccncc4)c3c2)cc1` had an inhibition greater than 90%.

In turn, `Nc1ccc2c(Nc3ccncc3)nc(-c3ccc(F)cc3)nc2c1` came in with an inhibition greater than 90%.

Take `Nc1ccc2c(Nc3ccncc3)nc(-c3ccccc3F)nc2c1`: the inhibition was greater than 90%.

In general, IC50 refers to the concentration at which inhibition is half-maximal. A low value points to higher potency. As for `Fc1ccccc1-c1nc(Nc2ccncc2)c2ccccc2n1`, the IC50 came to 800 nM.

Consider `COc1cc2nc(-c3ccccc3Cl)nc(Nc3ccncc3)c2cc1OC`, for which the inhibition was greater than 90%.

On to `CSc1ccc(CNc2ccc3nc(-c4ccccc4F)nc(Nc4ccncc4)c3c2)cc1`, for which the inhibition was greater than 90%.

`CC(C)CNc1ccc2nc(-c3ccccc3F)nc(Nc3ccncc3)c2c1` came in with an inhibition greater than 90%.

`O=[N+]([O-])c1ccc2nc(-c3ccccc3F)nc(Nc3ccncc3)c2c1` came in with an inhibition greater than 90%.

The compound `COc1cccc(CNc2ccc3c(Nc4ccncc4)nc(-c4ccc(F)cc4)nc3c2)c1` gave an inhibition greater than 90%.

In turn, `COc1cccc(CNc2ccc3nc(-c4ccccc4F)nc(Nc4ccncc4)c3c2)c1` yielded an inhibition greater than 90%.

Compound `COc1ccc(C(=O)Nc2ccc3nc(-c4ccccc4F)nc(Nc4ccncc4)c3c2)cc1` showed an inhibition greater than 90%.

`Fc1ccc(-c2nc(Nc3ccncc3)c3ccccc3n2)cc1` showed an IC50 of 800 nM.

In turn, `Cc1ccccc1-c1nc(Nc2ccncc2)c2ccccc2n1` had an IC50 of 800 nM.

On to `Brc1ccccc1-c1nc(Nc2ccncc2)c2ccccc2n1`, for which the IC50 came out at 800 nM.

Compound `COc1cccc(Nc2nc(-c3ccccc3)nc3ccccc23)c1` had an IC50 of 800 nM.

Turning to `Nc1ccc2nc(-c3ccccc3F)nc(Nc3ccncc3)c2c1`, the IC50 was 800 nM and the inhibition is greater than 90%.

On to `c1ccc(-c2nc(Nc3ccncc3)c3ccccc3n2)cc1`, for which the IC50 worked out at 800 nM.

`c1ccc(-c2nc(NCc3ccncc3)c3ccccc3n2)cc1` returned an IC50 of 800 nM.

Regarding `Clc1ccccc1-c1nc(Nc2ccncc2)c2ccccc2n1`, the IC50 was 800 nM.
